Results on nine molecules are retold here after patent US20240173389A1, “Compositions and Methods For Reducing Immune Intolerance” (LAPIX THERAPEUTICS, INC., priority 2021, published 2024).

The test system of assay [1] is RAW264.7 mouse monocyte macrophage cells. As to the kind of experiment: SAR screen in RAW 264.7 cells with FVIII antigen, TNF-α ELISA (Example 5). The format is cell-based. Conditions: for TNF-α induction: liposomal (DMPC 70:30) or free form dosed 0.001-100 μM. The source says:
(§1) RAW264.7 mouse monocyte macrophage cells were exposed to an increasing concentration of selected compounds in the presence of human plasma-derived FVIII as a model antigen protein. TNF-α and TGF-β production were monitored.
All molecules were formulated in RPMI media in aseptic conditions. The pH was adjusted to approximately 7.5 before dosing cells. 1,2-dimyristoyl-sn-glycero-3-phosphocholine (DM PC):PS liposomes were made at 70:30 molar ratio to make “PS” liposomes.
(§2) RAW 264.7 cells were prepared, cultured, and dosed. Cells were seeded at 4×10^5 cells/well. OPLS, OPLT and L-homocysteic acid (LHA) were dosed at 100, 85, 70, 60, 50, 30, 10, 3, 1, 0.3, 0.1, 0.03 and 0.01 mM, or at 100, 85, 70, 60, 50, 30, 10, 3 and 1 mM, as indicated. O-Benzyl-L-serine (OBLS), S-phenyl-L-cysteine (SPLC), S-benzyl-L-cysteine (SBLC) and OBLT were dosed at 100, 85, 70, 60, 50, 30, 10, 3, 1, 0.3, 0.1, 0.03, 0.01, 0.003 and 0.001 μM. Finally, 100 μl of 40 μg/ml of FVIII as a sample antigen was added to each cell. LPS and free protein were used as positive and baseline controls, respectively. TNF-α and TGF-β ELISA were conducted as per the manufacturer's instructions (R & D Systems).
For orientation: ELISA stands for enzyme-linked immunosorbent assay.

The subject of another assay is Splenocytes. As to the kind of experiment: Splenocyte culture with anti-CD3/anti-CD28 without antigen, Foxp3+/CD4+ by flow cytometry (Example 4). It counts as cell-based. Conditions: 100 μM, three days, anti-CD3/anti-CD28, absence of any antigen. As for the experimental part: Splenocytes were cultured for three days in presence of anti-CD3/anti-CD28 in presence of 100 μM PS or 100 μM OPLT in absence of any antigen.
Background: Flow cytometry measures light scatter and fluorescence of single cells or particles in a stream.

The test system of assay [2] is RAW264.7 mouse monocyte macrophage cells. The assay can be described thus: SAR screen in RAW 264.7 cells with FVIII antigen, TGF-β ELISA (Example 5). Conditions: free compounds dosed in mM range. It counts as cell-based.
Source text: as §1
All molecules were formulated in RPMI media in aseptic conditions. The pH was adjusted to approximately 7.5 before dosing cells. 1,2-dimyristoyl-sn-glycero-3-phosphocholine (DM PC):PS liposomes were made at 70:30 molar ratio to make “PS” liposomes. The remaining liposomes were made by hydrating a DMPC lipid layer in PBS buffer containing a test compound to give a final molar ratio of 70:30 of DMPC:test compound.
as §2

Another assay has as its system TLR4. The assay can be described thus: TNF-α production by splenocytes in response to TLR4 ligand LPS. It counts as cell-based, C57BL/6 mice. Conditions: 48 hours, OPLT 1.85 μg/ml, dexamethasone 100 μg/ml, rapamycin 625 μg/ml. As for the experimental part:
(§3) OPLT was dissolved in sterile PBS at 100 μM, and pH was adjusted to approximately 7.5. Splenocytes from naïve C57BL/6 mice were stained with CFSE, prepared, cultured, and dosed. Cells were seeded at 2×10^5 cells/well.
(§4) To evaluate the effects of OPLT on cytokine production by splenocytes in response to different TLR ligands, splenocytes were incubated with one of the following TLR ligands in triplicate: PGN, LPS, ODN CPG, dsRNA, or ssRNA, as per group assignment. Cells were then treated as follows: • Control: No treatment; • OPLT: Cells were dosed with 1.85 μg/ml; • Dexamethasone: Cells were dosed with 100 μg/ml; • Rapamycin: Cells were dosed with 625 μg/ml. Cells were incubated for 48 hours before collecting the supernatant for TNF-α analysis.
(§5) The supernatant was collected for TNF-α analysis by ELISA.

The subject of a further assay is TLR2. The assay can be described thus: TNF-α production by splenocytes in response to TLR2 ligand PGN. The format is cell-based, C57BL/6 mice. Conditions: 48 hours, OPLT 1.85 μg/ml, dexamethasone 100 μg/ml, rapamycin 625 μg/ml. Here is the method: as §3, §4, §5
A further assay has as its system TLR9. As to the kind of experiment: TNF-α production by splenocytes in response to TLR9 ligand ODN CpG. The format is cell-based, C57BL/6 mice. Conditions: 48 hours, OPLT 1.85 μg/ml, dexamethasone 100 μg/ml, rapamycin 625 μg/ml. As for the experimental part: as §3, §4, §5
A further assay concerns TLR7. As to the kind of experiment: TNF-α production by splenocytes in response to TLR7 ligand ssPolyU. The format is cell-based, C57BL/6 mice. Conditions: 48 hours, OPLT 1.85 μg/ml, dexamethasone 100 μg/ml, rapamycin 625 μg/ml. Here is the method: as §3, §4, §5
The next assay deals with TLR3. As to the kind of experiment: TNF-α production by splenocytes in response to TLR3 ligand poly(I:C). It counts as cell-based, C57BL/6 mice. Conditions: 48 hours, OPLT 1.85 μg/ml, dexamethasone 100 μg/ml, rapamycin 625 μg/ml. As for the experimental part: as §3, §4, §5
A further assay relates to B57BL6 Mice. As to the kind of experiment: Anti-FVIII titer analysis in mice given FVIII co-mixed with compound SC QW 4 weeks, then FVIII re-challenge (Example 1). The format is in vivo. Conditions: end of treatment after one-week washout. As for the experimental part: (§6) OPLT was dissolved in sterile PBS, and pH was adjusted to approximately 7.5. OPLS, a comparator compound, was dissolved in sterile PBS, and pH was adjusted to approximately 7.5. FVIII in PBS was used as a control. For treatment, FVIII was co-mixed with OPLT, OPLS or diluted in PBS before administration, as per group assignment for each animal. For re-challenge, FVIII was administered alone SC to all animals regardless of group assignment. […] For a head-to-head comparison, 5 mg/injection was selected for OPLT. FVIII was dosed at 1 μg/injection.
The study was conducted in two parts: a treatment phase and a re-challenge phase. The objective of the treatment phase was to test the ability of OPLT to reduce the immunogenicity of FVIII as an antigen compared to animals administered FVIII or FVIII+OPLS. Animals were injected with FVIII, FVIII+OPLT, or FVIII+OPLS SC QW for 4 weeks. Blood samples were collected for anti-FVIII titer analysis after a one-week washout period from the last dose. The objective of the re-challenge phase of the study was to evaluate the duration of tolerance. Animals that have been successfully tolerized toward FVIII will not mount a robust immune response towards FVIII upon subsequent exposure to FVIII. After the washout period, animals were injected with (1 μg) FVIII SC QW for 2 weeks. Blood samples were collected one week after each FVIII injection for anti-FVIII titer analysis.

A further assay relates to FoxP3+/CD4+ T-cell. As to the kind of experiment: Ex vivo flow cytometry of splenocytes for FoxP3+/CD4+ T-cells after FVIII treatment period (Example 1). It counts as in vivo, mice. As for the experimental part:
as §6
One week after the last dose in the treatment period, one animal from each group was selected at random for ex vivo analysis of the T-cell population. Spleens were collected and a single-cell suspension was prepared for cellular phenotyping by flow cytometry. Cells were stained and gated for CD4+ T-cells. FoxP3 expression level was evaluated for each animal.

In the case of “phosphatidyl serine [PS, reference compound]”, the “fold difference between the ability of OPLS and PS to induce TNF-α” value in assay [1] (OPLS versus PS) is on record as 1,000 fold. Besides, the “increase in Foxp3+/CD4+ compared to control” value with Splenocytes was determined as 76%.

Turning to `N[C@@H](COCc1ccccc1)C(=O)O` [OBLS, O-Benzyl-L-serine], the TNF-α induction result in [1] (FVIII antigen) is “failed to induce TNF-α”.

`N[C@@H](CCS(=O)(=O)O)C(=O)O` [LHA, L-homocysteic acid]: in assay [1] (free compounds dosed in mM range, FVIII antigen), the “TNF-α production (suppression) versus OPLS” value is reported as “more potent inhibitors of TNF-α”. Also, the “TGF-β production versus OPLS” value in [2] is on record as “more potent inducers of TGF-β”.

Take `N[C@@H](CSCc1ccccc1)C(=O)O` [SBLC, S-benzyl-L-cysteine]: the TNF-α induction entry in assay [1] (FVIII antigen) is on record as “failed to induce TNF-α”.

`CO[C@H]1C[C@@H]2CC[C@@H](C)[C@@](O)(O2)C(=O)C(=O)N2CCCC[C@H]2C(=O)O[C@H]([C@H](C)C[C@@H]2CC[C@@H](O)[C@H](OC)C2)CC(=O)[C@H](C)/C=C(\C)[C@@H](O)[C@@H](OC)C(=O)[C@H](C)C[C@H](C)/C=C/C=C/C=C/1C` [Rapamycin, rapamycin]: the TNF-α mean in the assay with TLR4 (LPS 0 ng/ml) is 0 pg/mL; with TLR4 (LPS 1 ng/ml, CTL 143), 0 pg/mL; in the assay with TLR4 (LPS 10 ng/ml, CTL 840), 0 pg/mL; with TLR4 (LPS 100 ng/ml, CTL 1091), 0 pg/mL; with TLR2 (PGN 0 ng/ml), 0 pg/mL; with TLR2 (PGN 1 ng/ml, CTL 730), 0 pg/mL. Moreover, the TNF-α mean in the assay on TLR2 (PGN 10 ng/ml, CTL 725) came to 0 pg/mL; in the assay with TLR2 (PGN 100 ng/ml, CTL 834) it was 0 pg/mL; in the assay on TLR9 (ODN CpG 0 ng/ml), 0 pg/mL; in the assay with TLR9 (ODN CpG 1 ng/ml, CTL 0), 0 pg/mL; with TLR9 (ODN CpG 10 ng/ml, CTL 338) it was 0 pg/mL; with TLR9 (ODN CpG 100 ng/ml, CTL 1220) it was 0 pg/mL. The TNF-α mean turned out to be 0 pg/mL in the assay on TLR7 (Poly U 0 ng/ml); 0 pg/mL in the assay on TLR7 (Poly U 1 ng/ml, CTL 44); 29 pg/mL in the assay with TLR7 (Poly U 10 ng/ml, CTL 51); 14 pg/mL in the assay on TLR7 (Poly U 100 ng/ml, CTL 229); 0 pg/mL in the assay on TLR3 (PolyI:C 0 ng/ml); 0 pg/mL with TLR3 (PolyI:C 1 ng/ml, CTL 0). The TNF-α mean in the assay on TLR3 (PolyI:C 10 ng/ml, CTL 109) stood at 0 pg/mL; with TLR3 (PolyI:C 100 ng/ml, CTL 162), 0 pg/mL.

On to `N[C@@H](Cc1ccc(OCc2ccccc2)cc1)C(=O)O` [OBLT, O-benzyl-L-tyrosine], for which, in assay [1] (FVIII antigen), the TNF-α induction entry was “failed to induce TNF-α”.

Consider `C[C@@H]1C[C@H]2[C@@H]3CCC4=CC(=O)C=C[C@]4(C)[C@@]3(F)[C@@H](O)C[C@]2(C)[C@@]1(O)C(=O)CO` [Dexamethasone, dexamethasone], for which the TNF-α mean in the assay on TLR4 (LPS 0 ng/ml) came to 0 pg/mL; in the assay on TLR4 (LPS 1 ng/ml, CTL 143), 0 pg/mL; in the assay with TLR4 (LPS 10 ng/ml, CTL 840) it was 0 pg/mL; in the assay with TLR4 (LPS 100 ng/ml, CTL 1091) it was 0 pg/mL; with TLR2 (PGN 0 ng/ml) it was 0 pg/mL; in the assay with TLR2 (PGN 1 ng/ml, CTL 730) it was 0 pg/mL. Also, the TNF-α mean in the assay on TLR2 (PGN 10 ng/ml, CTL 725) amounted to 0 pg/mL; in the assay on TLR2 (PGN 100 ng/ml, CTL 834), 0 pg/mL; with TLR9 (ODN CpG 0 ng/ml), 0 pg/mL; with TLR9 (ODN CpG 1 ng/ml, CTL 0) it was 0 pg/mL; with TLR9 (ODN CpG 10 ng/ml, CTL 338), 0 pg/mL; with TLR9 (ODN CpG 100 ng/ml, CTL 1220), 0 pg/mL. The TNF-α mean amounted to 0 pg/mL in the assay on TLR7 (Poly U 0 ng/ml); 0 pg/mL with TLR7 (Poly U 1 ng/ml, CTL 44); 0 pg/mL with TLR7 (Poly U 10 ng/ml, CTL 51); 41 pg/mL in the assay on TLR7 (Poly U 100 ng/ml, CTL 229); 0 pg/mL with TLR3 (PolyI:C 0 ng/ml); 0 pg/mL in the assay with TLR3 (PolyI:C 1 ng/ml, CTL 0). The TNF-α mean in the assay with TLR3 (PolyI:C 10 ng/ml, CTL 109) turned out to be 0 pg/mL; with TLR3 (PolyI:C 100 ng/ml, CTL 162), 0 pg/mL.

As to `N[C@@H](COP(=O)(O)O)C(=O)O` [OPLS, O-phospho-L-serine, reference compound], in the assay with B57BL6 Mice, the “anti-FVIII titers versus FVIII control group” value was “statistically lower than the FVIII control group”. For the same molecule, in the assay on B57BL6 Mice (5 mg/injection + FVIII SC QW 4 weeks, FVIII control 8/8), the “animals that developed anti-FVIII antibodies” value was 5/8. The “increase in FoxP3+/CD4+ compared to the FVIII alone group” value in the assay on FoxP3+/CD4+ T-cell (5 mg/injection co-mixed with FVIII 1 μg SC QW 4 weeks, splenocytes of one animal per group one week after last dose) came out at 66%. The “FoxP3+/CD4+ T-cell (flow cytometry of splenocytes)” value in the assay on FoxP3+/CD4+ T-cell (5 mg/injection co-mixed with FVIII SC QW 4 weeks, one animal per group, FVIII alone 2.94) came to 4.89.

In the case of `N[C@@H](CSc1ccccc1)C(=O)O` [SPLC, S-phenyl-L-cysteine], the TNF-α induction entry in assay [1] (FVIII antigen) was “failed to induce TNF-α”.
